The values that follow come from patent publication US12643892B2, “Pyridazinone compounds for the treatment of neuromuscular diseases” (Edgewise Therapeutics, Inc., priority 2020, dated 2026).

The target in one test is Skeletal Myofibril ATPase (Rabbit Psoas myofibrils). Description: Skeletal Myofibril ATPase Assay. The settings on record: PK/LDH-coupled NADH absorbance at 340 nm. Type of test: biochemical. The gist of the method:
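Rabbit psoas myofibril ATPase read through a PK-LDH coupled system, as NADH loss at 340 nm every 1.5-2 min for 1 h, in PIPES/CaCl2/EGTA pCa buffer at pH 7.0. Absorbance change normalized to 1% DMSO vehicle (100%) and no change (0%). IC50 from a four-parameter logistic fit with bottom constrained ≥0.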
As to `O=c1ccc(-c2nc(-c3cncc(F)c3)no2)cn1Cc1cccnc1` [Compound 108, 5-(3-(5-fluoropyridin-3-yl)-1,2,4-oxadiazol-5-yl)-1-(pyridin-3-ylmethyl)pyridin-2(1H)-one], the IC50 (in general, the concentration that inhibits the measured activity by half) lay within 10 to 100 µM. Same read-out and setting: to `Cc1cccc(-c2noc(-c3ccc(=O)n(Cc4cccnc4)c3)n2)c1` [Compound 109, 1-(pyridin-3-ylmethyl)-5-(3-(m-tolyl)-1,2,4-oxadiazol-5-yl)pyridin-2(1H)-one] belongs 10 to 100 µM; to `O=c1ccc(-c2nc(-c3ccccc3Cl)no2)cn1Cc1cccnc1` [Compound 110, 5-(3-(2-chlorophenyl)-1,2,4-oxadiazol-5-yl)-1-(pyridin-3-ylmethyl)pyridin-2(1H)-one], 10 to 100 µM.

For `O=c1ccc(-c2nc(-c3ccccc3F)no2)cn1Cc1cccnc1` [Compound 111, 5-(3-(2-fluorophenyl)-1,2,4-oxadiazol-5-yl)-1-(pyridin-3-ylmethyl)pyridin-2(1H)-one], the IC50 was above 120 µM.

`Cc1cccc(-c2noc(-c3ccc(=O)n(Cc4cccnc4C#N)c3)n2)c1` [Compound 112, 3-((2-oxo-5-(3-(m-tolyl)-1,2,4-oxadiazol-5-yl)pyridin-1(2H)-yl)methyl)picolinonitrile] gave an IC50 above 120 µM. The same measure, in the same setting: to `O=c1ccc(-c2nc(-c3ccccc3Cl)no2)cn1Cc1noc(C2CC2)n1` [Compound 113, 5-(3-(2-chlorophenyl)-1,2,4-oxadiazol-5-yl)-1-((5-cyclopropyl-1,2,4-oxadiazol-3-yl)methyl)pyridin-2(lH)-one] belongs above 120 µM; to `Cc1cccc(-c2noc(-c3ccc(=O)n(Cc4ccc(C(F)(F)F)nc4)c3)n2)c1` [Compound 114, 5-(3-(m-tolyl)-1,2,4-oxadiazol-5-yl)-l-((6-(trifluoromethyl)pyridin-3-yl)methyl)pyridin-2(1H)-one], above 120 µM.

For the compound `O=c1ccc(-c2nc(-c3ccsc3)no2)cn1Cc1ccccc1C(F)(F)F` [Compound 115, 5-(3-(thiophen-3-yl)-1,2,4-oxadiazol-5-yl)-1-(2-(trifluoromethyl)benzyl)pyridin-2(1H)-one], the IC50 is above 120 µM. Take `O=c1ccc(-c2nc(-c3cnccn3)no2)cn1Cc1ccccc1F` [Compound 116, 1-(2-fluorobenzyl)-5-(3-(pyrazin-2-yl)-1,2,4-oxadiazol-5-yl)pyridin-2(1H)-one]: the IC50 is above 120 µM.

The compound `CC(c1cncc(F)c1)n1cc(-c2nc(-c3cccc(Cl)c3)no2)ccc1=O` (stereo not shown) [Compound 117, 5-(3-(3-chlorophenyl)-1,2,4-oxadiazol-5-yl)-1-(1-(5-fluoropyridin-3-yl)ethyl)pyridin-2(1H)-one] had an IC50 above 120 µM.

Compound `Cc1cccc(-c2noc(-c3ccc(=O)n(Cc4cccnc4C)c3)n2)c1` [Compound 118, 1-((2-methylpyridin-3-yl)methyl)-5-(3-(m-tolyl)-1,2,4-oxadiazol-5-yl)pyridin-2(1H)-one] returned an IC50 above 120 µM. As for `O=c1ccc(-c2nc(-c3ccncc3)no2)cn1Cc1ccc(Cl)cc1` [Compound 119, 1-(4-chlorobenzyl)-5-(3-(pyridin-4-yl)-1,2,4-oxadiazol-5-yl)pyridin-2(1H)-one], the IC50 is above 120 µM.

For the compound `O=c1ccc(-c2nc(-c3ccncc3)no2)cn1Cc1ccccc1C(F)(F)F` [Compound 120, 5-(3-(pyridin-4-yl)-1,2,4-oxadiazol-5-yl)-1-(2-(trifluoromethyl)benzyl)pyridin-2(1H)-one], the IC50 was above 120 µM. On the same count and under the same terms, next, `COc1ncccc1Cn1cc(-c2nc(-c3cccc(C)c3)no2)ccc1=O` [Compound 121, 1-((2-methoxypyridin-3-yl)methyl)-5-(3-(m-tolyl)-1,2,4-oxadiazol-5-yl)pyridin-2(1H)-one]: above 120 µM. Compound `O=c1ccc(-c2nc(-c3ccc(Cl)cc3)no2)cn1Cc1ccc(Cl)cc1` [Compound 122, 1-(4-chlorobenzyl)-5-(3-(4-chlorophenyl)-1,2,4-oxadiazol-5-yl)pyridin-2(1H)-one] yielded an IC50 above 120 µM. The same measure, in the same setting: to `O=c1ccc(-c2nc(C3CC3)no2)cn1Cc1c(F)cccc1Cl` [Compound 123, 1-(2-chloro-6-fluorobenzyl)-5-(3-cyclopropyl-1,2,4-oxadiazol-5-yl)pyridin-2(1H)-one] belongs above 120 µM; to `O=c1ccc(-c2nc(-c3ccc(Cl)cc3)no2)cn1Cc1ccc(Cl)c(Cl)c1` [Compound 124, 5-(3-(4-chlorophenyl)-1,2,4-oxadiazol-5-yl)-1-(3,4-dichlorobenzyl)pyridm-2(1H)-one], above 120 µM; to `O=c1ccc(-c2nc(-c3ccc(Cl)cc3)no2)cn1Cc1cccnc1` [Compound 125, 5-(3-(4-chlorophenyl)-1,2,4-oxadiazol-5-yl)-1-(pyridin-3-ylmethyl)pyridin-2(1H)-one], above 120 µM.

Another test relates to embryos from zebrafish model of DMD.
Assay: not given
The settings on record: FIG. 2, Li and Amer, PLoSONE, 2015; cited from earlier work.
Consider `Cc1ccc(S(=O)(=O)NCc2ccccc2)cc1` [BTS, N-benzyl-p-tolyl-sulfonamide], for which the “protection of muscles from pathological muscle derangement” value is “protect muscles from pathological muscle derangement”.
